Entries after “also recorded” stand apart in the source; their conditions may differ. No end group written: not given here.
Key:
nestin = nestin immunoblot of hESC / EB-rosette structure lysates; assay type: cell-based, human
Protocol: (§1) FIG. 1. P4 differentiates hESC into neuroectoderm. (a) hESC were grown in TESR1 media—Li in the presence of E2 (10 nM), P4 (2 μM) or E2 (10 nM)+P4 (2 μM) for 6 d and cell proliferation measured using the trypan blue assay. Results are expressed as mean±SEM, n=3 (*p<0.05, **p<0.005 compared to 6 d control). (b) Equal amounts of protein from cell lysates of hESC treated for 9 d as described above were analyzed by immunoblot using a monoclonal antibody against nestin (clone 10C2; Chemicon, Calif., USA). (c) hESC were cultured for 4 d, enzymatically lifted and placed into EB media (containing serum) and rocked gently for an additional 4 d prior to being placed in one of two neural induction medias for an additional 11 days, where P4 was either absence or present. During this transition from EB to rosettes, colony structures treated with P4 also were treated with a PR antagonist (RU-486; 20 μM) or ER antagonist (ICI 182,780) for 11 d. At 19 d, morphological observation and molecular analysis were performed. […] (ii) hESC structure in the absence of P4. (iii) PR antagonist treated rosettes (RU-486, 20 μM). (iv) ER antagonist (ICI 182,780). (d) Equal amounts of protein from cell lysates of the above structures were analyzed by immunoblot with the monoclonal antibody against human nestin.

hESC [1] = test: EB and neuroectodermal rosette/NPC formation from hESC, morphological observation; assay type: cell-based, human; settings: neural induction media with P4, antagonist for 11 d (RU-486 20 μM); observed at 19 d
Protocol: as §1

hESC [2] = test: hESC cell proliferation, trypan blue assay; assay type: cell-based, human; settings: E2 10 nM, P4 2 μM or E2+P4, 6 d; compared to untreated control cells
Protocol: as §1

rat hippocampal slices = test: extracellular field responses in CA1 of isolated hippocampal slices; assay type: cell-based; settings: 50 nM
Protocol: FIG. 3. GnRH1 increases neuronal excitability in hippocampal slices from old rats. Typical traces from hippocampal slice cut transversely at 500 μm thickness from 37 day (A) and 19 month (B) old male rats. Orthodromic extracellular field responses were recorded in the cell body layer of the CA1. Responses were evoked by a bipolar electrode with a constant current stimuli (50 μs duration) delivered every 30 s by electrodes placed in the schaeffer collaterals. 50 nM GnRH1 was used. Mean values are shown in C., n=5 slices each for young rats and n=3 slices each for old rats. Slices from two young and two old animals were used. Superfusion of human GnRH evoked a 50% increase in the maximum amplitude of population spikes in hippocampal slices from old rats compared to controls (FIGS. 3B, C).

[3] = tested on: Tg2576 mice carrying the Swedish AβPP mutation; settings: aged Tg2576 transgenic mice; cited from earlier work

Molecule: CC(=O)[C@H]1CC[C@H]2[C@@H]3CCC4=CC(=O)CC[C@]4(C)[C@H]3CC[C@]12C [P4, pregn-4-ene-3,20-dione]
- nestin expression in hESC (nestin; hESC treated for 9 d, E2 10 nM, P4 2 μM, immunoblot): increased the expression of the neuroectodermal marker nestin; also recorded: induces nestin expression
- EB and neuroectodermal rosette/NPC formation (hESC [1]): a minimum of three rosette structures
- decrease in the rate of hESC proliferation (hESC [2]): 29%

Molecule: GnRH1: human gonadotropin releasing hormone, superfused at 50 nM (QHWSYGLRPG; ends and bridges not checked; UniProt P01148 24-33, looked up)
- increase in the maximum amplitude of population spikes compared to controls (rat hippocampal slices; hippocampal slices from old (19 month old) rats): 50%
- increase in neuronal excitability compared to controls (rat hippocampal slices; hippocampal slices from young (37 day old) rats): 22%
- maximum amplitude of field responses, cell body layer of CA1 (rat hippocampal slices; old rats, n=3, control 2.54±0.18 mV, p=0.05): 3.99±0.84 mV
- maximum amplitude of field responses, cell body layer of CA1 (rat hippocampal slices; young rats, n=5, control 7.0±1.4 mV, p=0.548): 7.9±2.7 mV

Molecule: C[C@]12CC[C@@H]3c4ccc(O)cc4C[C@@H](CCCCCCCCC[S+]([O-])CCCC(F)(F)C(F)(F)F)[C@H]3[C@@H]1CC[C@@H]2O (stereo partly drawn) [ICI 182,780]
- nestin expression in antagonist treated structures (nestin; antagonist for 11 d (RU-486 20 μM), immunoblot at 19 d): absence of nestin
- EB and neuroectodermal rosette/NPC formation (hESC [1]): No rosettes were detected

Molecule: CCNC(=O)[C@@H]1CCCN1C(=O)[C@H](CCCNC(=N)N)NC(=O)[C@H](CC(C)C)NC(=O)[C@@H](CC(C)C)NC(=O)[C@H](Cc1ccc(O)cc1)NC(=O)[C@H](CO)NC(=O)[C@H](Cc1c[nH]c2ccccc12)NC(=O)[C@H](Cc1c[nH]cn1)NC(=O)[C@@H]1CCC(=O)N1 [leuprolide acetate]
- Aβ deposition [3]: halts Aβ deposition
- cognitive performance [3]: improves cognitive performance

Molecule: C[C@]12CC[C@@H]3c4ccc(O)cc4CC[C@H]3[C@@H]1CC[C@@H]2O [E2, estradiol]
- decrease in the rate of hESC proliferation (hESC [2]): 16%

From patent publication US20100028360A1, “METHODS FOR THE MODULATION OF BRAIN PROGESTAGEN SIGNALING IN THE PREVENTION AND TREATMENT OF NEUROLOGICAL DISORDERS AND NEURODEGENERATIVE DISEASES” (priority 2008, published 2010)
